# Assay results taken from patent US6472391B2, “Nitrogen-containing heterocyclic compounds” (Millennium Pharmaceuticals, Inc., priority 1996, dated 2002).
row,Structure (SMILES),melting point
1,"COc1cc2ncnc(N3CCN(C(=S)NC(=O)c4ccco4)CC3)c2cc1OC [Compound 95, 4-(6,7-Dimethoxy-4-quinazolinyl)-N-(2-furoyl)-1-piperazinethiocarboxamide]",187 to 189 °C
2,"COc1cc2ncnc(N3CCN(C(=S)NC(c4ccccc4)c4ccccc4)CC3)c2cc1OC [Compound 133, 4-(6,7-Dimethoxy-4-quinazolinyl)-N-diphenylmethyl-1-piperazinethiocarboxamide]",128 to 129 °C
3,"COc1cc2ncnc(N3CCN(C(=O)Nc4ccc(I)cc4)CC3)c2cc1OC [Compound 46, 4-(6,7-Dimethoxy-4-quinazolinyl)-N-(4-iodophenyl)-1-piperazinecarboxamide]",238 to 242 °C
4,"COc1cc2ncnc(N3CCN(C(=O)Nc4ccc(C#N)nc4)CC3)c2cc1OC [Compound 273, N-(2-Cyano-5-pyridyl)-4-(6,7-dimethoxy-4-quinazolinyl)-1-piperazinecarboxamide]",275 to 277 °C
5,"S=C(NCc1ccccc1)N1CCN(c2ncnc3cc4c(cc23)OCCO4)CC1 [Compound 374, N-Benzyl-4-(6,7-ethylenedioxy-4-quinazolinyl)-1-piperazinethiocarboxamide]",103 to 105 °C
6,"COc1ccc(CNC(=S)N2CCN(c3ncnc4cc(OC)c(OC)cc34)CC2)cc1OC [Compound 205, N-(3,4-Dimethoxybenzyl)-4-(6,7-dimethoxy-4-quinazolinyl)-1-piperazinethiocarboxamide]",196 to 197 °C
7,"CC(=O)c1ccc(NC(=O)N2CCN(c3ncnc4c(Cl)cc(Cl)cc34)CC2)cc1 [Compound 378, N-(4-Acetylphenyl)-4-(6,8-dichloro-4-quinazolinyl)-1-piperazinecarboxamide]",187 to 188 °C
8,"COc1cc2ncnc(N3CCN(C(=O)Nc4cccc(Cl)c4)CC3)c2cc1OC [Compound 39, N-(3-Chlorophenyl)-4-(6,7-dimethoxy-4-quinazolinyl)-1-piperazinecarboxamide]",223 to 224 °C
9,Cc1ccc2c(N3CCN(C(=S)NCc4cccnc4)CC3)ncnc2c1.Cl.Cl,180 to 183 °C
10,"Cc1ccc2c(N3CCN(C(=O)Nc4ccc([N+](=O)[O-])cc4)CC3)ncnc2c1 [Compound 313, 4-(7-Methyl-4-quinazolinyl)-N-(4-nitrophenyl)-1-piperazinecarboxamide]",251 to 254 °C
11,"COc1cc2ncnc(N3CCN(C(=O)Nc4cc(C(F)(F)F)cc(C(F)(F)F)c4)CC3)c2cc1OC [Compound 32, N-[3,5-Bis(trifluoromethyl)phenyl]-4-(6,7-dimethoxy-4-quinazolinyl)-1-piperazinecarboxamide]",251 to 252 °C
12,"CCCCOc1ccc(NC(=O)N2CCN(c3ncnc4cc(OC)c(OC)cc34)CC2)cc1 [Compound 58, N-(4-Butoxyphenyl)-4-(6,7-dimethoxy-4-quinazolinyl)-1-piperazinecarboxamide]",213 to 214 °C
13,"COc1cc2ncnc(N3CCN(C(=O)NCc4ccc(F)cc4)CC3)c2cc1OC [Compound 172, 4-(6,7-Dimethoxy-4-quinazolinyl)-N-(4-fluorobenzyl)-1-piperazinecarboxamide]",200 to 201 °C
14,"COc1cc2ncnc(N3CCN(C(=O)Nc4ccc(F)cc4F)CC3)c2cc1OC [Compound 50, N-(2,4-Difluorophenyl)-4-(6,7-dimethoxy-4-quinazolinyl)-1-piperazinecarboxamide]",174 to 175 °C
15,"COc1cc2ncnc(N3CCN(C(=S)NCc4ccncc4)CC3)c2cc1OC [Compound 270, 4-(6,7-Dimethoxy-4-quinazolinyl)-N-(4-picolyl)-1-piperazinethiocarboxamide]",236 to 239 °C
16,"COc1ccc(CNC(=S)N2CCN(c3ncnc4cc(OC)c(OC)cc34)CC2)cc1 [Compound 199, 4-(6,7-Dimethoxy-4-quinazolinyl)-N-(4-methoxybenzyl)-1-piperazinethiocarboxamide]",201 to 204 °C
17,"COc1cc2ncnc(N3CCN(C(=S)Nc4cccnc4)CC3)c2cc1OC [Compound 97, 4-(6,7-Dimethoxy-4-quinazolinyl)-N-(3-pyridyl)-1-piperazinethiocarboxamide]",169 to 171 °C
18,"COc1cc2ncnc(N3CCN(C(=S)Nc4ccncc4)CC3)c2cc1OC [Compound 268, 4-(6,7-Dimethoxy-4-quinazolinyl)-N-(4-pyridyl)-1-piperazinethiocarboxamide]",218 to 220 °C
19,"COc1cc2ncnc(N3CCN(C(=O)Nc4ccc(-n5cccc5)cc4)CC3)c2cc1OC [Compound 280, 4-(6,7-Dimethoxy-4-quinazolinyl)-N-[4-(1-pyrrolyl)phenyl]-1-piperazinecarboxamide]",224 to 226 °C
20,"CCOC(=O)c1cnc2cc(OC)c(OC)cc2c1N1CCN(C(=S)NCc2cccnc2)CC1 [Compound 410, 4-(6,7-Dimethoxy-3-ethoxycarbonyl-4-quinolyl)-N-(3-picolyl)-1-piperazinethiocarboxamide]",92 to 94 °C
21,"COc1cc2ncnc(N3CCN(C(=O)Nc4ccccc4[N+](=O)[O-])CC3)c2cc1OC [Compound 75, 4-(6,7-Dimethoxy-4-quinazolinyl)-N-(2-nitrophenyl)-1-piperazinecarboxamide]",217 to 218 °C
22,"COc1cc2ncnc(N3CCN(C(=O)Nc4ccc(C)c(C)c4)CC3)c2cc1OC [Compound 30, 4-(6,7-Dimethoxy-4-quinazolinyl)-N-(3,4-dimethylphenyl)-1-piperazinecarboxamide]",202 to 203 °C
23,"CCOC(=O)c1cccc(NC(=O)N2CCN(c3ncnc4cc(OC)c(OC)cc34)CC2)c1 [Compound 248, 4-(6,7-Dimethoxy-4-quinazolinyl)-N-(3-ethoxycarbonylphenyl)-1-piperazinecarboxamide]",187 to 188 °C
24,"COc1cc2nc(Cl)nc(N3CCN(C(=O)Nc4ccc(Oc5ccccc5)cc4)CC3)c2cc1OC [Compound 392, 4-(2-Chloro-6,7-dimethoxy-4-quinazolinyl)-N-(4-phenoxyphenyl)-1-piperazinecarboxamide]",178 to 179 °C
25,"COc1cc2ncnc(N3CCN(C(=S)NCCN4CCOCC4)CC3)c2cc1OC [Compound 142, 4-(6,7-Dimethoxy-4-quinazolinyl)-N-(2-morpholinoethyl)-1-piperazinethiocarboxamide]",79 to 81 °C
26,"COc1cc2ncnc(N3CCCN(C(=O)Nc4ccc([N+](=O)[O-])cc4)CC3)c2cc1OC [Compound 112, 4-(6,7-Dimethoxy-4-quinazolinyl)-N-(4-nitrophenyl)-1-homopiperazinecarboxamide]",243 to 244 °C

# Continued, values first:
row,melting point,Structure (SMILES)
1,181 to 190 °C,"COc1cc2nncc(N3CCN(C(=S)NCc4cccnc4)CC3)c2cc1OC [Compound 427, 4-(6,7-Dimethoxy-4-cinnolinyl)-N-(3-picolyl)-1-piperazinethiocarboxamide]"
2,174 to 178 °C,"COc1cc2ncnc(N3CCN(C(=S)Nc4ccc(C(=O)NC5CCOC5=O)cc4)CC3)c2cc1OC (racemic) [Compound 92, (dl)-N-[4-(2,3,4,5-Tetrahydro-2-oxofuran-3-ylcarbamoyl)phenyl]-4-(6,7-dimethoxy-4-quinazolinyl)-1-piperazinethiocarboxamide]"
3,109 to 111 °C,"COc1cc2ncnc(N3CCN(C(=O)Nc4ccc(C(C)(C)C)cc4)CC3)c2cc1OC [Compound 156, N-(4-tert-Butylphenyl)-4-(6,7-dimethoxy-4-quinazolinyl)-1-piperazinecarboxamide]"
4,171 to 172 °C,"COc1cc2ncnc(N3CCN(C(=S)Nc4cccc(C(F)(F)F)c4)CC3)c2cc1OC [Compound 163, 4-(6,7-Dimethoxy-4-quinazolinyl)-N-(3-trifluoromethylphenyl)-1-piperazinethiocarboxamide]"
5,177 to 178 °C,"Fc1cc2ncnc(N3CCN(C(=S)NCc4cccnc4)CC3)c2cc1F [Compound 331, 4-(6,7-Difluoro-4-quinazolinyl)-N-(3-picolyl)-1-piperazinethiocarboxamide]"
6,99 to 101 °C,"COc1cc2ncnc(N3CCN(C(=S)N[C@H](C)c4ccccc4)CC3)c2cc1OC [Compound 130, (R)-4-(6,7-Dimethoxy-4-quinazolinyl)-N-(1-phenylethyl)-1-piperazinethiocarboxamide]"
7,242 to 246 °C,"CCOC(=O)c1ccc(NC(=O)N2CCN(c3ncnc4cc(OC)c(OC)cc34)CC2)cc1 [Compound 89, 4-(6,7-dimethoxy-4-quinazolinyl)-N-(4-ethoxycarbonylphenyl)-1-piperazinecarboxamide]"
8,156 to 157 °C,"COc1cc2nc(-c3ccccc3)nc(N3CCN(C(=O)Nc4ccc([N+](=O)[O-])cc4)CC3)c2cc1OC [Compound 111, 4-(6,7-Dimethoxy-2-phenyl-4-quinazolinyl)-N-(4-nitrophenyl)-1-piperazinecarboxamide]"
9,209 to 210 °C,"COc1cc2ncnc(N3CCN(C(=O)Nc4ccc5[nH]ccc5c4)CC3)c2cc1OC [Compound 118, 4-(6,7-Dimethoxy-4-quinazolinyl)-N-(5-indolyl)-1-piperazinecarboxamide]"
10,218 to 219 °C,"CCCC(=O)c1ccc(NC(=S)N2CCN(c3ncnc4cc(OC)c(OC)cc34)CC2)cc1 [Compound 244, N-(4-Butyrylphenyl)-4-(6,7-dimethoxy-4-quinazolinyl)-1-piperazinethiocarboxamide]"
11,211 to 212 °C,"CC(C)c1ccc(NC(=O)N2CCN(c3ncnc4ccc(I)cc34)CC2)cc1 [Compound 304, 4-(6-Iodo-4-quinazolinyl)-N-(4-isopropylphenyl)-1-piperazinecarboxamide]"
12,128 to 129 °C,"Cc1ccc2ncnc(N3CCN(C(=S)NCc4cccnc4)CC3)c2c1 [Compound 295, 4-(6-Methyl-4-quinazolinyl)-N-(3-picolyl)-1-piperazinethiocarboxamide]"
13,221 to 224 °C,"COc1cc2ncnc(N3CCN(C(=S)Nc4ccc([N+](=O)[O-])cc4)CC3)c2cc1OC [Compound 80, 4-(6,7-Dimethoxy-4-quinazolinyl)-N-(4-nitrophenyl)-1-piperazinethiocarboxamide]"
14,195 to 196 °C,"O=C(Nc1ccc(Oc2ccccc2)cc1)N1CCN(c2ncnc3c(Cl)cc(Cl)cc23)CC1 [Compound 377, 4-(6,8-Dichloro-4-quinazolinyl)-N-(4-phenoxyphenyl)-1-piperazinecarboxamide]"
